In this assay the target is Glutamate receptor ionotropic, NMDA 1 (Rattus norvegicus, UniProt P35439). The assay can be described thus: Ability to displace [3H]TCP from high affinity PCP N-methyl-D-aspartate glutamate receptor in rat brain homogenates in vitro was determined. The format is tissue-based.
`CCCCCCCCCCC12NC(Cc3ccccc31)c1ccccc12` (configuration not stated): the affinity, expressed as Ki, was 21600 nM.

`ClCC12NC(Cc3ccccc31)c1ccccc12` (configuration not stated): affinity was put at a Ki of 12 nM.

Take `NCC12NC(Cc3ccccc31)c1ccccc12` (configuration not stated): the affinity, expressed as Ki, was 117 nM.

For `c1ccc2c(c1)CC1NC2c2ccccc21` (configuration not stated), the Ki (commonly the dissociation constant of the complex between target and ligand, obtained from inhibition or displacement) was found to be 120 nM.

Regarding `CCCCCCC12NC(Cc3ccccc31)c1ccccc12` (configuration not stated), affinity was put at a Ki of 980 nM.

Take `c1ccc(COCC23NC(Cc4ccccc42)c2ccccc23)cc1` (configuration not stated): the Ki came to 10000 nM.

On to `C=CCC12NC(Cc3ccccc31)c1ccccc12` (configuration not stated), for which the affinity, expressed as Ki, was 70 nM.

The molecule `IC12NC(Cc3ccccc31)c1ccccc12` (configuration not stated) yielded a Ki of 430 nM.

In turn, `CCCC12NC(Cc3ccccc31)c1ccccc12` (configuration not stated) yielded a Ki of 1100 nM.

As for `O=C(O)C12NC(Cc3ccccc31)c1ccccc12` (configuration not stated), the affinity corresponds to a Ki of 32300 nM.

Molecule `CCC12NC(Cc3ccccc31)c1ccccc12` (configuration not stated) yielded a Ki of 12 nM.

`NC(=O)C12NC(Cc3ccccc31)c1ccccc12` (configuration not stated) had a Ki of 11300 nM.

Regarding `N#CCC12NC(Cc3ccccc31)c1ccccc12` (configuration not stated), the Ki was found to be 967 nM.

For the molecule `OCC12NC(Cc3ccccc31)c1ccccc12` (configuration not stated), the affinity, expressed as Ki, was 40 nM.

As to `BrCC12NC(Cc3ccccc31)c1ccccc12` (configuration not stated), the Ki came to 33 nM.

As for `COCC12NC(Cc3ccccc31)c1ccccc12` (configuration not stated), affinity was put at a Ki of 300 nM.

For `NCCC12NC(Cc3ccccc31)c1ccccc12` (configuration not stated), the Ki amounted to 20 nM.

The values are drawn from ChEMBL document CHEMBL1124718, “Synthesis and structure-activity relationship of C5-substituted analogues of (+-)-10,11-dihydro-5H-dibenzo[a,d]cyclohepten-5,10-imine [(+-)-desmethyl-MK801]: ligands for the NMDA receptor-coupled phencyclidine binding site” (J Med Chem, 1990).
